Kd data for 1 compound are collected here from PMC11547813, “The Antifungal Effects of Berberine and Its Proposed Mechanism of Action Through CYP51 Inhibition, as Predicted by Molecular Docking and Binding Analysis” (Molecules, 2024).

A value given as a limit tells only on which side of the number the result lay.

This test deals with T1, CYP51Ca (recombinant protein CYP51 of C. albicans) (Candida albicans, UniProt P10613).
T1 construct: gene ERG11; commercial recombinant protein from Sangon Biotech (Shanghai)
Description: biolayer interferometry (BLI), protein immobilised on APS sensor. The class given is binding. The source says: biolayer interferometry (BLI), protein immobilised on APS sensor on CYP51Ca (recombinant protein CYP51 of C. albicans) | berberine binds to CYP51Ca in a dose-dependent manner, with a dissociation constant (KD)

T1 sequence (P10613 whole entry): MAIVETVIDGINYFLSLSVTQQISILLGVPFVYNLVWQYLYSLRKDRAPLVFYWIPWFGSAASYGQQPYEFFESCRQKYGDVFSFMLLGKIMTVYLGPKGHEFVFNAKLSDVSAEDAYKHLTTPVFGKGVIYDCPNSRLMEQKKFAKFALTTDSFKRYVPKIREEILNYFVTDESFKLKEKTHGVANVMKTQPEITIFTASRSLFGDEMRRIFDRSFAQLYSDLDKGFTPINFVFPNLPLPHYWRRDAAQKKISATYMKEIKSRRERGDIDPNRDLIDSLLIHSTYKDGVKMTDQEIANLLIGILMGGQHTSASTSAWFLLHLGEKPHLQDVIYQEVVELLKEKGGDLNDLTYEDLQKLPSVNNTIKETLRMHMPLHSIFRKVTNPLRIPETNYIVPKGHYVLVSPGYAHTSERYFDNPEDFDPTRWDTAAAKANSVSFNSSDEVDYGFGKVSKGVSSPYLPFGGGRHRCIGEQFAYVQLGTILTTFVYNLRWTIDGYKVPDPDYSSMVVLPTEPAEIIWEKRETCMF

In the case of `COc1ccc2cc3[n+](cc2c1OC)CCc1cc2c(cc1-3)OCO2` [berberine], the equilibrium dissociation constant (Kd) was below 1 pM.

As a reminder, the Kd is the equilibrium constant for the complex coming apart.
